“Also recorded” adds a separate entry of the source. fluorescein = fluorescein label at the N-terminus
Tests used:
[1] = test system: immature embryos; test: Fluorimetry analysis of relative fluorescence uptake by embryos; format: cell-based, Triticale cv AC Alta; details: permeabilized and non-permeabilized embryos
Experimental: (§1) The embryos were isolated from spikes two weeks post-anthesis (scutellum diameter 1-2 mm). The immature seeds were surface sterilized with 70% ethanol for 30 s followed by treatment with 10% hypochlorite (Chlorex) and a drop of Tween 20, 3 min. Four washings of 1 min each were given with sterile water. The embryos were hand dissected under sterile conditions. Isolated embryos were placed on GEM medium (Eudes et al, 2003) for 24 h in dark at room temperature prior to CPP translocation studies.
Isolated and sterilized embryos (20-25) were imbibed in total volume of 420 μl permeabilization buffer (15 mM sodium chloride, 1.5 mM sodium citrate, pH 7.1) containing cellular permeabilization agent toluene/ethanol (1:4) in 1:20 ratio with permeabilization buffer. To this 2.1 μl of 1 mM fluoresceinated CPP was added to give a final concentration of 5 μM. […] Embryos were washed two times with permeabilization buffer and subjected either for fluorescence microscopy or spectrofluorimetric analysis.
For fluorimetric analysis, the embryos were treated with 500 μl of 1% Triton X-100 (prepared in permeabilization buffer), 30 min, at 4° C. The supernatant was collected in a fresh tube and relative fluorescence uptake by the embryos with different CPPs was estimated by fluorimeter (Biorad, Versafluor, USA Excitation 490/Emission 520).

[2] = test system: root tip, leaf tip, leaf base and coleoptile; details: 5 μM fluorescently labeled peptide
Experimental: Triticale seeds were washed with detergent and grown on moist cotton for one week. The root tip, leaf tip, leaf base and coleoptile were excised and incubated with 5 μM of fluorescently labeled pVEC, scrambled pVEC and transportan.

[3] = test system: immature embryos; test: Translocation of fluoresceinated CPPs in zygotic embryos, fluorescence microscopy; format: cell-based, Triticale cv AC Alta
Experimental: as §1
Isolated and sterilized embryos (20-25) were imbibed in total volume of 420 μl permeabilization buffer (15 mM sodium chloride, 1.5 mM sodium citrate, pH 7.1) containing cellular permeabilization agent toluene/ethanol (1:4) in 1:20 ratio with permeabilization buffer. To this 2.1 μl of 1 mM fluoresceinated CPP was added to give a final concentration of 5 μM. In negative controls, the embryos were treated with FITC-dextran sulphate or M-Tat. The embryos were incubated in the permeabilization mix for 1 h in dark at room temperature, followed by two washings with permeabilization buffer. The embryos were then treated with trypsin:EDTA (0.25% solution, Sigma-Aldrich) in 1:2 ratio with permeabilization buffer for 5 min at room temperature to remove free peptide molecules. Embryos were washed two times with permeabilization buffer and subjected either for fluorescence microscopy or spectrofluorimetric analysis.

[4] = test system: isolated microspores; test: Uptake of fluoresceinated Tat by isolated microspores; format: cell-based; details: no permeabilization
Experimental: However, permeabilization is not necessary for all cell types. FIG. 2 illustrates the uptake of fluoresceinated Tat by isolated microspores.
Isolated microspores were prepared as described by Amundsen and Eudes, 2005.

[5] = test system: isolated microspores of Triticale (variety Sunray); test: CPP delivery of GUS enzyme into isolated microspores, GUS staining; format: cell-based; details: GUS enzyme cargo:CPP 1:4, 1 hour at 37° C., three repeats
Experimental: Triticale line Sunray grown in a growth cabinet with a photoperiod of 19 h day (intensity 300 μE m-2 s-1), and temperature 18-15° C. (day-night) with a relative humidity at about 70% was used as the donor plant material. The plants were fertilized every 2 weeks (20-20-20, 200 ppm) and treated with 2.5 ml I-1 Tilt™ (propiconazole, Syngenta) during the tillering stage and Intercept™ (0.004 g per litre of soil, Imidacloprid, Bayer) once sufficient root development was established. The first 10 tillers from each pot were harvested when the spike was at 3-4 cm, depending on the crop, from emergence from the boot. These tillers (to be used for microspore isolation) were subjected to pre-treatment in a refrigerator (4° C.) for 21 days with their bases in distilled water and their heads wrapped in aluminum foil. After 21±3 days of pre-treatment, the spikes were excised from their tillers and after an evaluation of their general appearance, only the most homogenous spikes were used. After confirming microspores at mid to bi-nucleate stage from a median floret, using acetocarmine staining, the tillers were processed for extraction.
Awns were removed with scissors in a laminar flow hood. Eight-fourteen spikes were used for microspore isolation. They were sterilized with 10% bleach (5.25% sodium hypochlorite) for 3 min followed by rinsing in sterile double distilled water four times of 1 min each with constant agitation. Outer glumes were removed and florets from all the spikes were aseptically dissected and transferred to a sterile and refrigerated 110 ml Warring blender cup (VWR international, #58983-093) containing 50 ml filter sterilized extraction buffer at 4° C. Florets were then blended twice for 7 s at low speed (18000 rpm). The slurry was then poured through a 1 mm sieve followed by pouring through a 100 μm sterile mesh (VWR International, #CA21008-950) into two 50 ml centrifuge tubes (25 ml each). The blender cup was rinsed with 50 ml extraction buffer at 4° C. and poured through the 100 μm mesh and was added to the first aliquot in the 50 ml tubes. The cells were then pelleted by centrifugation (100×g for 5 min at 4° C.) using a swinging bucket rotor. After pouring off the supernatant, the microspore-containing pellets were pooled together in one 50 ml tube and re-suspended in 50 ml cold extraction buffer. The cells were pelleted again with centrifugation (100×g for 5 min at 4° C.), the supernatant poured off and the pellet was transferred to a 15 ml tube. After re-suspending the pellet in CIMC Wash Buffer supplemented with 10 microM SS-31 peptide, it was subjected to wash and centrifugation using the above conditions. The supernatant was removed and the pellet was re-suspended in CIMC Wash buffer and centrifugation was repeated as above. The pellet was then suspended in 7 mL of 20% maltose at 4° C., layered with 1 mL of CIMC wash buffer and was centrifuged at 100 g for 13 min at 4° C. A band of microspores formed at the interface was collected in a new 15 ml tube. The cells were diluted with CIMC wash solution and subsequently collected by centrifugation at 150 g for 5 min. The supernatant was removed and the cells were finally suspended in a total volume of 1.4 ml of appropriate solution. After counting the cells using a haemocytometer, aliquots of 100,000 cells in 200 μl volume were prepared in 2 ml microcentrifuge tubes to be ready for transduction.
Peptide stock solutions were made in water at 1 μg/μl concentration. CPP (Nanocarrier) and GUS enzyme (cargo) were first prepared in separate microcentrifuge tubes. A total of 4 μg of CPP was prepared in sterile water to a final volume of 100 μl. Similarly, 1 μg of GUS enzyme was added to sterile water to a final volume of 100 μl. The contents of the two tubes were mixed together giving a ratio of 1:4 protein cargo:CPP. The complex was incubated for 30 min at room temperature (RT). Chariot (PAP1) protein delivering reagent was used as a positive control in the experiments. […]

[6] = test system: Triticale microspores; test: DNA-protein co-delivery in microspores, GUS histochemical assay of embryos; format: cell-based; details: 2 months after transfection
Experimental: Triticale tillers for microspore isolation were kept in the refrigerator (4° C.) for 3 weeks with their bases in distilled water and their heads wrapped in aluminum foil. After 3 weeks±3 days, the mid to late uninucleate microspore stage was verified from a median floret using acetocarmine staining prior to extraction. Isolated microspore was carried in Triticale as published in Eudes and Amundsen (2005) for obtaining purified microspore suspension adjusted to 2.5×10^5 cells per ml of NPB99 medium.
The plasmid (pAct-1 GUS, ˜7.2 kb) was linearized with PstI restriction enzyme and DNA was purified by PCR product purification kit (QIAquick, Qiagen, USA). The GUS DNA was delivered following 7 different treatments (T). […]

FI-GWTLNSAGYLLGKINLKALAALAKKIL-amide [Transportan]
Translocation by fluorimetric analysis compared with visual observation [1]: relatively greater translocation
Fluorescence in excised seedling tissues [2]: maximum florescence

FI-RKKRRQRRR-amide (fluorescein-RKKRRQRRR-NH2) [TAT-PTD]
Uptake seen by fluorescence microscopy (FIG. 1) ([3]; in the presence of cellular permeabilizing agent (toluene)): most significant uptake; also recorded: distinct layer of accumulation in the scutellum and localized accumulation in the germ area
Uptake seen by fluorescence microscopy (FIG. 1) ([3]; without cellular permeabilizing agent): some fluorescence
Uptake of fluoresceinated peptide by isolated microspores (FIG. 2) [4]: can penetrate into cells

RKKRRQRRRRKKRRQRRR (TAT2) [18 amino acid dimer of the PTD of HIV Tat, reference compound]
Average Transduction Efficiency [5]: 17.50%
Highest numbers of embryos that showed GUS [6]: 25.8%

— patent publication US20160340683A1, “NANOCARRIER BASED PLANT TRANSFECTION AND TRANSDUCTION” (HER MAJESTY THE QUEEN IN RIGHT OF CANADA AS REPRESENTED BY …, priority 2007, published 2016)
